Assay results from patent publication EP4640223A1, “PHARMACEUTICAL COMPOSITION FOR PREVENTION OR TREATMENT OF CARDIOVASCULAR DISEASE, COMPRISING SODIUM-GLUCOSE COTRANSPORTER-2 INHIBITOR AND ANGIOTENSIN II RECEPTOR BLOCKER” (THPharm Corp., priority 2022, dated 2024).
Where two headings read alike, the source gives them in different places. Values belong to the compound of their own block, whether it stands above or below them.

Assays:
[1] = Drug-drug compatibility test under accelerated stability conditions; format: physicochemical; settings: for flexible substance / content (ARB) / content (SGLT-2 inhibitor): HPLC; for content (ARB): first figure of the cell; for property: color, clumping, etc.; for content (SGLT-2 inhibitor): second figure of the cell
Procedure: Specifically, after storing a mixture of ARB and SGLT-2 inhibitor for 2 weeks under accelerated stability test conditions (40 ± 2°C/75 ± 5% relative humidity), changes in the contents of each ingredient and flexible substance and changes in properties (color, clumping, etc.) were analyzed. Olmesartan, Valsartan, and Telmisartan were used as ARBs, and Empagliflozin, Dapagliflozin (Dapagliflozin propanediol monohydrate), and Canagliflozin were used as SGLT-2 inhibitors.

[2] = test system: angiotensin converting enzyme (ACE); assay: ACE mRNA expression (RT-PCR, normalized to GAPDH) in LPS inflammation-induced H9c2 cells; format: cell-based, rat
Procedure: Specifically, LPS inflammation-induced H9c2 cells in Experimental Example 1-2 were treated with 10 or 25 µM Telmisartan and 10 or 50 µM Olmesartan, and then treated with 200 µl of chloroform together with 1 ml of TRIZol (Sigma, USA), gently mixed, and separated for 10 minutes, and then centrifuged at 4°C and 10,000 rpm for 10 minutes. After centrifugation, only the supernatant from the tube was taken and transferred to a new sterile tube, and the supernatant was treated with 500 µl of isopropanol to precipitate RNA. The precipitated RNA was centrifuged at 4°C, 10,000 rpm for 10 minutes, and then the supernatant except for the pellets in the tube was fully removed, and the RNA pellets were treated with 500 µl of 75% ethyl alcohol and thoroughly washed. The washed pellets were centrifuged at 4°C, 10,000 rpm for 5 minutes, and then the supernatant except the pellets was fully removed. The tube containing the pellets from which the supernatant had been cleanly removed was treated with diethyl pyrocarbonate (DEPC)-water and stored at - 80°C for use in an RT-PCR experiment.
RT-PCR was performed by synthesizing cDNA from mRNA using an RT-PCR kit containing DNA polymerase, buffer, dNTP, and tracking dye, and then using ACE primers in Table 1 under the conditions in Table 2 for 35 cycles. The PCR products were electrophoresed on a […] agarose gel, identified using a UV transilluminator, and expressed as normalized to GAPDH for quantitative comparison.
In order to confirm the effect of each combination or single substance on the mRNA expression of ACE, the experimental samples in Table 3 were treated to H9c2 cells induced with LPS inflammation in Experimental Example 1-2, respectively, and then the mRNA expression of ACE was evaluated in the same manner as in Experimental Example 1-3.

[3] = repeated oral, steady state
[4] = 4-week repeated oral administration toxicity; format: in vivo, Sprague-Dawley rats; settings: daily for 4 weeks
Procedure: Specifically, groups were configured in the same manner as in Experimental Example 4-1, and the combinations were administered orally daily for 4 weeks to 5 male and 5 female 6-week-old Sprague-Dawley rats per group. During the test, general symptom observation, blood test, and body weight measurement were performed, and after the observation period ended, the rats were euthanized and autopsied.

MDCK cells = assay: Cell survival rate (MTT) in MDCK cells; format: cell-based; settings: after 24 hours and 48 hours, up to a concentration of 25 µM
Procedure: (§1) Specifically, A549 cells were obtained from the Korean Cell Line Bank (KCLB) and subcultured using a RPMI-1640 medium supplemented with 10% fetal bovine serum (FBS) and 1% Penicillin, and MDCK cells were obtained from ATCC and subcultured using a DMEM medium supplemented with 10% FBS. 200 µl each of the A549 cells and MDCK cells incubated in an incubator under 37°C and 5% CO2 conditions were dispensed at 2 × 10^4 cells/well in a 96-well plate, and then a control group was treated with 100 µl of the medium, and experimental groups were treated with 1.25, 25, 50, and 100 µM of Telmisartan or Olmesartan, respectively. After 24 hours and 48 hours, all of the wells were treated with 50 µl each of a 2 mg/ml MTT reagent and incubated in an incubator for 3 hours, and then each well was added with 500 µl of DMSO, wrapped in foil, stirred for 30 minutes at room temperature, and the absorbance was measured at 570 nm to obtain the cell survival rate.

A549 cells = assay: Cell survival rate (MTT) in A549 cells; format: cell-based; settings: after 24 hours and 48 hours, up to a concentration of 25 µM
Procedure: as §1

[5] = test system: angiotensin converting enzyme (ACE); assay: ACE protein expression (Human ACE ELISA) in LPS inflammation-induced H9c2 cells; format: cell-based, rat
Procedure: Specifically, H9c2 cells as a human cardiac cell line were obtained and used from the Korea Cell Line Bank (KCLB 40071, Korea) and incubated and prepared in a DMEM medium supplemented with 10% FBS and 1% antibiotic-antimycotic (10 units/ml penicillin, 100 µg/ml streptomycin, 0.25 µg/ml amphotericin) under 37°C and 5% CO2 conditions.
To confirm the effect on ACE activity, the prepared H9c2 cells were treated with 2.5 µg/ml of Lipopolysaccharide (LPS), which was 2.5 times more than the amount used in conventional inflammation-related experiments, to induce inflammation, thereby setting the optimized conditions for confirming ACE expression. […]
To perform the ELISA assay, 10,000 pg/ml, 5,000 pg/ml, 2,500 pg/ml, 1,250 pg/ml, 625 pg/ml, 312 pg/ml, and 156 pg/ml of Human ACE standard solutions and a standard dilution buffer were added by 0.1 ml to each well of an antibody-coated 96-well plate. […] Thereafter, each well was added with 90 µl of the prepared TMB solution, incubated for 20 to 25 minutes in a dark room at 37°C, and then treated with each 0.1 ml of the prepared TMB stop solution to stop an ACE ELISA reaction, and the OD absorbance at 450 nm was read in a microplate reader within 30 minutes, and the relative OD450 was derived using the following Equation. […]

[6] = Acceleration 1 week, 40 ± 2°C/75 ± 5% relative humidity
[7] = Acceleration 2 week, 40 ± 2°C/75 ± 5% relative humidity
[8] = experimental samples at the concentrations of Table 3
[9] = alone, low-concentration administration groups of 2.5 µM to 10 µM

Compound: CCCc1nc2c(C)cc(-c3nc4ccccc4n3C)cc2n1Cc1ccc(-c2ccccc2C(=O)O)cc1 [Com. Ex. 16, Telmisartan]
flexible substance [1, 6]: 0.1 or less
content (ARB) [1, 6]: 100.1%
property [1, 6]: suitable
flexible substance [1, 7]: 0.1 or less
content (ARB) [1, 7]: 100%
property [1, 7]: suitable
flexible substance ([1]; Initial): 0.1 or less
content (ARB) ([1]; Initial): 100.1%
property ([1]; Initial): suitable

Compound: OC[C@H]1O[C@@H](c2ccc(Cl)c(Cc3ccc(O[C@H]4CCOC4)cc3)c2)[C@H](O)[C@@H](O)[C@@H]1O [Com. Ex. 17, Empagliflozin]
flexible substance [1, 6]: 1.0 or less
content (SGLT-2 inhibitor) [1, 6]: 97.3%
property [1, 6]: suitable
flexible substance [1, 7]: 1.0 or more
content (SGLT-2 inhibitor) [1, 7]: 95.1%
property [1, 7]: suitable
flexible substance ([1]; Initial): 0.1 or less
content (SGLT-2 inhibitor) ([1]; Initial): 99.9%
property ([1]; Initial): suitable

Compound: CCCCC(=O)N(Cc1ccc(-c2ccccc2-c2nnn[nH]2)cc1)[C@H](C(=O)O)C(C)C [Com. Ex. 20, Valsartan]
flexible substance [1, 6]: 0.1 or more
content (ARB) [1, 6]: 99.4%
property [1, 6]: suitable
flexible substance [1, 7]: 0.1 or more
content (ARB) [1, 7]: 99.2%
property [1, 7]: suitable
flexible substance ([1]; Initial): 0.1 or less
content (ARB) ([1]; Initial): 99.7%
property ([1]; Initial): suitable

Compound: OC[C@H]1O[C@@H](c2ccc(Cl)c(Cc3ccc(O[C@H]4CCOC4)cc3)c2)[C@H](O)[C@@H](O)[C@@H]1O [Comparative Example 8, Empagliflozin]
mRNA expression of ACE [2, 8]: decrease below the normal level

Compound: CCCc1nc2c(C)cc(-c3nc4ccccc4n3C)cc2n1Cc1ccc(-c2ccccc2C(=O)O)cc1 [Comparative Example 14, Telmisartan]
mRNA expression of ACE [2, 8]: decrease below the normal level

Compound: OC[C@H]1O[C@@H](c2ccc(Cl)c(Cc3ccc(O[C@H]4CCOC4)cc3)c2)[C@H](O)[C@@H](O)[C@@H]1O [Empagliflozin, (1S)-1,5-anhydro-1-C-[4-chloro-3-[[4-[[(3S)-tetrahydro-3-furanyl]oxy]phenyl]methyl]phenyl]-D-glucitol]
mRNA expression of ACE [2, 9]: did not decrease to a normal level

Compound: CCCc1nc(C(C)(C)O)c(C(=O)O)n1Cc1ccc(-c2ccccc2-c2nnn[nH]2)cc1 [Olmesartan]
cell survival rate (MDCK cells): no effect
cell survival rate (A549 cells): no effect

Continued, in another order:

flexible substance [1, 6]: 1.0 or less
content (SGLT-2 inhibitor) [1, 6]: 95.2%
property [1, 6]: unsuitable
flexible substance [1, 7]: 5.0 or more
content (SGLT-2 inhibitor) [1, 7]: 89.2%
property [1, 7]: unsuitable
flexible substance ([1]; Initial): 0.1 or less
content (SGLT-2 inhibitor) ([1]; Initial): 99.5%
property ([1]; Initial): suitable
Compound: Cc1ccc([C@@H]2O[C@H](CO)[C@@H](O)[C@H](O)[C@H]2O)cc1Cc1ccc(-c2ccc(F)cc2)s1 [Com. Ex. 21, Canagliflozin]

Cmax T/R ratio ([3]; Dapagliflozin 10 mg in the presence of Telmisartan 80 mg, 90% confidence interval 0.93 to1.12): 1.02
AUC T/R ratio ([3]; Dapagliflozin 10 mg in the presence of Telmisartan 80 mg, 90% confidence interval 0.97 to 1.03): 1.00
Compound: CCOc1ccc(Cc2cc([C@@H]3O[C@H](CO)[C@@H](O)[C@H](O)[C@H]3O)ccc2Cl)cc1 [Dapagliflozin, (1S)-1,5-anhydro-1-C-{4-chloro-3-[(4-ethoxyphenyl)methyl]phenyl}-D-glucitol]
mRNA expression of ACE [2, 9]: did not decrease to a normal level
GLU ([4]; blood test): decreased

Cmax T/R ratio ([3]; Telmisartan 80 mg in the presence of Dapagliflozin 10 mg, 90% confidence interval 0.99 to 1.43): 1.19
AUC T/R ratio ([3]; Telmisartan 80 mg in the presence of Dapagliflozin 10 mg, 90% confidence interval 1.01 to 1.18): 1.09
Compound: CCCc1nc2c(C)cc(-c3nc4ccccc4n3C)cc2n1Cc1ccc(-c2ccccc2C(=O)O)cc1 [Telmisartan, 4'-[(1,4'-dimethyl-2'-propyl[2,6'-bi-1H-benzimidazol]-1'-yl)methyl][1,1'-biphenyl]-2-carboxylic acid]
cell survival rate (MDCK cells): no effect
mRNA expression ([2]; ACE mRNA, 25 µM treatment group): mostly inhibited
mRNA expression inhibition effect ([2]; ACE mRNA, all treatment concentrations (Telmisartan 10 or 25 µM, Olmesartan 10 or 50 µM)): superior to that of Olmesartan
mRNA expression of ACE [2, 9]: did not decrease to a normal level
ACE expression inhibition effect ([5]; 25 µM treatment group): the best
ACE expression inhibition effect ([5]; all treatment concentrations (10, 25, 50 µM), comparison with Olmesartan): superior to that of Olmesartan
body weight measurement [4]: tendency for inhibiting weight gain
cell survival rate (A549 cells): no effect
